Assay results from patent publication US20170027172A1, “USE OF SUBSTITUTE OXO TETRAHYDROQUINOLINE SULFONAMIDES OR SALTS THEREOF FOR RAISING STRESS TOLERANCE OF PLANTS” (BAYER CROPSCIENCE AKTIENGESELLSCHAFT, priority 2014, published 2017).

Test system: Brassica napus
Experiment: Drought stress greenhouse test Part C, visual scoring vs stressed control plants
Assay type: in vivo
Settings: spray application 25 g/ha, efficacy range of 3-4 pots
Procedure: Seeds of monocotyledonous and dicotyledonous crop plants were sown in sandy loam in plastic or wood-fiber pots, covered with soil or sand and cultivated in a greenhouse under good growth conditions. The trial plants were treated at the early leaf stage (BBCH10-BBCH13). To assure uniform water supply before commencement of stress, the potted plants were supplied with water by dam irrigation prior to substance application. The inventive compounds were first formulated as wettable powders (WP) or dissolved in a solvent mixture. The further dilution was effected with water supplemented with 0.2% wetting agent (e.g. agrotin). The finished spray liquor was sprayed onto the green parts of the plant at an equivalent water application rate of 600 l/ha. Substance application was followed immediately by stress treatment of the plants. For this purpose, the wood-fiber pots were transferred in plastic inserts in order to prevent them from subsequently drying out too quickly. Drought stress was induced by gradual drying out under the following conditions: “Day”: 14 hours with illumination at 26-30° C. […] Once this juncture had been reached, the appearance of the plants treated with test substances was recorded in comparison to the stressed control plants by the following categories: [table] For each substance and dosage, 3-4 pots were treated and evaluated. […]

## COC(=O)CCN1C(=O)CCc2cc(NS(=O)(=O)Cc3ccc(F)cc3)ccc21 [A51-158]
  Effect (BRSNS): 20-30
